IC50 data for 68 compounds are collected here from patent US8318762B2, “Pyrazolospiroketone acetyl-CoA carboxylase inhibitors” (Pfizer Inc., priority 2008, dated 2012).

The target of the experiment is T1, recombinant human ACC2 (Homo sapiens, UniProt O00763).
T1 construct: a full length Cytomax clone of ACC2 was purchased from Cambridge Bioscience Limited; made in house; host or cells: CHO cells (tetracycline induction, pcDNA5 FRT TO-TOPO); purified on a Softlink Soft Release Avidin column
T1 sequence (O00763 whole entry): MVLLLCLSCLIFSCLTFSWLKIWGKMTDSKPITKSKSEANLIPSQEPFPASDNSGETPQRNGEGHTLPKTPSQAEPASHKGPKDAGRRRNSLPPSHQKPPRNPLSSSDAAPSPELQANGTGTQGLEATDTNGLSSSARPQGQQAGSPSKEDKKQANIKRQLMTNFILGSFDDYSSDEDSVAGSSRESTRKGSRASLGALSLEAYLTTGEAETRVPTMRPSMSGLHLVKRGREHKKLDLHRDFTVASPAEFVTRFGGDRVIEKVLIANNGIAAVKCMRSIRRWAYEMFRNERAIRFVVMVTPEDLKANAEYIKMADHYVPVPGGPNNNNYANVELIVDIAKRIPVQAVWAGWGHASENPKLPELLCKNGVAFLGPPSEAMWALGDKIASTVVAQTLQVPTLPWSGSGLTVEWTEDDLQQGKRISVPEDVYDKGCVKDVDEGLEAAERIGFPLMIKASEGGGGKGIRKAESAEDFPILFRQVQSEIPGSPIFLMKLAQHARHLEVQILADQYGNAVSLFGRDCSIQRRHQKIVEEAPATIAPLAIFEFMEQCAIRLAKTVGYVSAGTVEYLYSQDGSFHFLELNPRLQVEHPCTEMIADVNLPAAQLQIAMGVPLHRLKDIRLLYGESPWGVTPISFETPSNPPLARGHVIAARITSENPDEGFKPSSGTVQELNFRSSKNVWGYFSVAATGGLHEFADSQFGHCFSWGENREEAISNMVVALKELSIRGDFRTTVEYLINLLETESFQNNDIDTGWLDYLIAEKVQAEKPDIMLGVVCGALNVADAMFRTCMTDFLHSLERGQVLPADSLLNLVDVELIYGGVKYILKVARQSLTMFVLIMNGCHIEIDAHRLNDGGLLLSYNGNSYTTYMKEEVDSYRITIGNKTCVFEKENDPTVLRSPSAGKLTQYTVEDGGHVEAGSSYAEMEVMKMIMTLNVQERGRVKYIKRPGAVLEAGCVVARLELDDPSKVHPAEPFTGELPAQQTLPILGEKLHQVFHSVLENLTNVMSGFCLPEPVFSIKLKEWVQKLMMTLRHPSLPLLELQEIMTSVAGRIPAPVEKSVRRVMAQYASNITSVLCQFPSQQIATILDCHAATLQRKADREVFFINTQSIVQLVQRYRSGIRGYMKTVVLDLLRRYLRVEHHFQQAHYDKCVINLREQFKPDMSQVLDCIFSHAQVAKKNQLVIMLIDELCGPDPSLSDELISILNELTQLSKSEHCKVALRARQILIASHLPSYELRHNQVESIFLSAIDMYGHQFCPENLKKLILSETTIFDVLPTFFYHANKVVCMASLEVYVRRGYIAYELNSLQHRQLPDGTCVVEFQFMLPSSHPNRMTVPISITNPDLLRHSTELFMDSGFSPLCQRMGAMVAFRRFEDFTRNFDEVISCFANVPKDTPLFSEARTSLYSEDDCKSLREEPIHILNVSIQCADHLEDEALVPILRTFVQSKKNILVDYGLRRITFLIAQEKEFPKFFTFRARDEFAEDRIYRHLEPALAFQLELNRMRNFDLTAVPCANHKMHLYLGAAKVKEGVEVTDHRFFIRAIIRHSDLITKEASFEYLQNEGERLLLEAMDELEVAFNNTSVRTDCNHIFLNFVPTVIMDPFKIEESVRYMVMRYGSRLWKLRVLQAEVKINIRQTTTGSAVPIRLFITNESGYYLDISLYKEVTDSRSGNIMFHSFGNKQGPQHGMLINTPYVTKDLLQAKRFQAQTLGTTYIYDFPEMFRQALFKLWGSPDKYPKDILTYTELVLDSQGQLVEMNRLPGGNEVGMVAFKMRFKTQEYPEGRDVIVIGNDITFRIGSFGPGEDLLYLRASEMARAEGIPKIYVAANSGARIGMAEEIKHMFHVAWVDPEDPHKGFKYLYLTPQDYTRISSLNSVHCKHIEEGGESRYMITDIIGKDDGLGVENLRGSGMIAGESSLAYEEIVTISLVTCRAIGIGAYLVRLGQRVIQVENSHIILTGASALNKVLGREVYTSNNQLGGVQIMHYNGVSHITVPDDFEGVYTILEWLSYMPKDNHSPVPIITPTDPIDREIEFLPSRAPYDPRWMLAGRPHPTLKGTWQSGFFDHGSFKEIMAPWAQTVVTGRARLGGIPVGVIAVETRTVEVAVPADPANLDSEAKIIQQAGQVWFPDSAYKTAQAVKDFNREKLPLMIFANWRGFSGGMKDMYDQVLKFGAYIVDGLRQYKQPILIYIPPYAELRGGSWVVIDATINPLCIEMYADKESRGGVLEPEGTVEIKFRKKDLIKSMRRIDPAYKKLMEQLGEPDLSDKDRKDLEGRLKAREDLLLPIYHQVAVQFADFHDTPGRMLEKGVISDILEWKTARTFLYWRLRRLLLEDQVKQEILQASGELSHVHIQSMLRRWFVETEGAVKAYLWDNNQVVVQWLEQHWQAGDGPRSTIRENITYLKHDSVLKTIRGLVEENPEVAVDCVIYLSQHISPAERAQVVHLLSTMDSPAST
Description: Measurement of human ACC2 inhibition (recombinant hACC2 Transcreener ADP detection FP assay). The experiment is classed as biochemical. The settings on record: recombinant hACC2 transcreener assay; read-out: rhACC2 IC50. As for the experimental part: [3] Measurement of human ACC2 inhibition. Human ACC2 inhibition was measured using purified recombinant human ACC2 (hrACC2). […] The ACC2 was expressed in CHO cells by tetracycline induction and harvested in 5 liters of DMEM/F12 with glutamine, biotin, hygromycin and blasticidin with 1 μg/mL tetracycline (Invitrogen, Carlsbad, Calif.). The conditioned medium containing ACC2 was then applied to a Softlink Soft Release Avidin column (Promega, Madison, Wis.) and eluted with 5 mM biotin. […] The purified ACC2 was dialyzed in 50 mM Tris, 200 mM NaCl, 4 mM DTT, 2 mM EDTA, and 5% glycerol. […] The final conditions for the assay were 50 mM HEPES, pH7.5, 5 mM MgCl2, 5 mM tripotassium citrate, 2 mM DTT, 0.5 mg/mL BSA, 30 μM acetyl-CoA, 50 μM ATP, and 8 mM KHCO3. Typically, a 10 μl reaction was run for 1 hour at room temperature, and 10 μl of Transcreener stop and detect buffer was added and incubated for an additional 1 hour.
What is called IC50 is the midpoint of a concentration-inhibition curve. Take `CCc1n[nH]c2c(OC)cc(C(=O)N3CCC4(CC3)CC(=O)c3nn(CC)c(C)c3O4)cc12` [1.045]: the IC50 was 22 nM.

Consider `COc1cc(C(=O)N2CCC3(CC2)CC(=O)c2nn(C(C)C)cc2O3)cc2cn[nH]c12` [1.051], for which the 50% inhibitory concentration (IC50) worked out at 17 nM.

For `CCc1cc(C(=O)N2CCC3(CC2)CC(=O)c2nn(CC)cc2O3)cc2cn[nH]c12` [1.057], the half-inhibitory concentration (IC50) came to 40 nM.

Turning to `Cc1n[nH]c2ccc(C(=O)N3CCC4(CC3)CC(=O)c3nn(C5CCC5)cc3O4)cc12` [1.089], the IC50 is 22 nM.

Consider `Cc1noc2cc(C(=O)N3CCC4(CC3)CC(=O)c3nn(C(C)C)cc3O4)ccc12` [23.001], for which the concentration for half-maximal inhibition (IC50) was found to be 585 nM.

For `CCn1nc2c(c1C)OC1(CCN(C(=O)c3ccc4c(c3)nc(C)n4C)CC1)CC2=O` [8.006], the IC50 turned out to be 266 nM.

With `CCn1nc2c(c1C)OC1(CCN(C(=O)c3cc(F)c4cn[nH]c4c3)CC1)CC2=O` [2.016], the half-inhibitory concentration (IC50) came to 200 nM.

On to `CCn1cc2c(n1)C(=O)CC1(CCN(C(=O)c3ccc4[nH]nc(C)c4c3)CC1)O2` [1.083], for which the IC50 was determined as 43 nM.

For `Cc1cc(C(=O)N2CCC3(CC2)CC(=O)c2nn(C4CCC4)cc2O3)cc2[nH]cnc12` [3.006], the IC50 was determined as 55 nM.

For `CCn1nc2c(c1C)OC1(CCN(C(=O)c3cc(C)c4[nH]c(=O)ccc4c3)CC1)CC2=O` [11.001], the IC50 came to 33 nM.

`CCn1nc2c(c1C)OC1(CCN(C(=O)c3ccc4ccccc4c3)CC1)CC2=O` [6.007]: the half-inhibitory concentration (IC50) stood at 40 nM.

As to `CC(C)(C)n1cc2c(n1)C(=O)CC1(CCN(C(=O)c3ccc4sncc4c3)CC1)O2` [7.004], the IC50 stood at 23 nM.

On to `CCc1n[nH]c2c(OC)cc(C(=O)N3CCC4(CC3)CC(=O)c3nn(C(C)(C)C)cc3O4)cc12` [1.047], for which the concentration for half-maximal inhibition (IC50) stood at 2 nM.

For `Cc1cc(C(=O)N2CCC3(CC2)CC(=O)c2nn(C(C)(C)C)cc2O3)cc2ncn(C)c12` [8.001], the half-maximal inhibitory concentration (IC50) was 36 nM.

As for `Cc1n[nH]c2ccc(C(=O)N3CCC4(CC3)CC(=O)c3nn(C5CCCC5)cc3O4)cc12` [1.088], the half-maximal inhibitory concentration (IC50) was determined as 16 nM.

On to `Cc1c2c(nn1C(C)C)C(=O)CC1(CCN(C(=O)c3ccc4[nH]ncc4c3)CC1)O2` [1.073], for which the concentration for half-maximal inhibition (IC50) was 35 nM.

Consider `CCc1nn(C)c2cc(C(=O)N3CCC4(CC3)CC(=O)c3nn(C(C)C)cc3O4)ccc12` [2.007], for which the IC50 was 14 nM.

As to `Cc1n[nH]c2ccc(C(=O)N3CCC4(CC3)CC(=O)c3nn(C)cc3O4)cc12` [1.085], the concentration for half-maximal inhibition (IC50) turned out to be 403 nM.

For `CC(C)(C)n1cc2c(n1)C(=O)CC1(CCN(C(=O)c3cc(F)c4cn[nH]c4c3)CC1)O2` [2.014], the IC50 is 28 nM.

`CCn1nc2c(c1C)OC1(CCN(C(=O)c3ccc4sncc4c3)CC1)CC2=O` [7.005]: the 50% inhibitory concentration (IC50) is 36 nM.

On to `CCC(C)n1cc2c(n1)C(=O)CC1(CCN(C(=O)c3cc(C)c4[nH]nc(C)c4c3)CC1)O2` (centres unmarked) [1.140], for which the IC50 was found to be 2 nM.

As to `CC(C)n1cc2c(n1)C(=O)CC1(CCN(C(=O)c3ccc4[nH]ncc4c3)CC1)O2` [1.067], the half-maximal inhibitory concentration (IC50) was determined as 50 nM.

As for `CCOc1cc(C(=O)N2CCC3(CC2)CC(=O)c2nn(C(C)(C)C)cc2O3)cc2c(CC)n[nH]c12` [1.117], the 50% inhibitory concentration (IC50) is 4 nM.

Turning to `CCn1nc2c(c1C)OC1(CCN(C(=O)c3ccc4c(c3)NC(=O)CC4)CC1)CC2=O` [12.002], the IC50 amounted to 36 nM.

Regarding `Cc1cc(C(=O)N2CCC3(CC2)CC(=O)c2nn(C(C)(C)C)cc2O3)cc2[nH]ncc12` [2.018], the IC50 came out at 33 nM.

For `Cc1cc(C(=O)N2CCC3(CC2)CC(=O)c2nn(C(C)(C)C)cc2O3)cc2ccc(=O)[nH]c12` [11.002], the IC50 was found to be 11 nM.

Turning to `Cc1c2c(nn1C)C(=O)CC1(CCN(C(=O)c3ccc4nn(C)cc4c3)CC1)O2` [25.005], the IC50 worked out at 1540 nM.

With `Cc1n[nH]c2ccc(C(=O)N3CCC4(CC3)CC(=O)c3nn(C(C)(C)C)c(C)c3O4)cc12` [1.090], the 50% inhibitory concentration (IC50) was determined as 23 nM.

For `Cc1nc2c(F)cc(C(=O)N3CCC4(CC3)CC(=O)c3nn(C(C)C)cc3O4)cc2[nH]1` [3.024], the IC50 was determined as 70 nM.

Regarding `CC(C)n1cc2c(n1)C(=O)CC1(CCN(C(=O)c3ccc4oncc4c3)CC1)O2` [22.001], the half-inhibitory concentration (IC50) was over 1000 nM.

As for `CCn1nc2c(c1C)OC1(CCN(C(=O)c3ccc4c(C)n[nH]c4c3)CC1)CC2=O` [2.025], the IC50 is 44 nM.

Take `Cn1cc2c(n1)C(=O)CC1(CCN(C(=O)c3ccc4[nH]ncc4c3)CC1)O2` [1.071]: the IC50 is 773 nM.

With `CCOc1cc(C(=O)N2CCC3(CC2)CC(=O)c2nn(CC)c(C)c2O3)cc2c(C)n[nH]c12` [1.118], the IC50 was 27 nM.

For `CCn1cc2c(n1)C(=O)CC1(CCN(C(=O)c3cc(C)c4[nH]nc(Cl)c4c3)CC1)O2` [1.108], the IC50 stood at 19 nM.

On to `Cc1cc(C(=O)N2CCC3(CC2)CC(=O)c2nn(C(C)(C)C)cc2O3)cc2c(Cl)n[nH]c12` [1.105], for which the IC50 came out at 2 nM.

As to `Cc1n[nH]c2ccc(C(=O)N3CCC4(CC3)CC(=O)c3nn(C(C)C)cc3O4)cc12` [1.081], the half-inhibitory concentration (IC50) was 10 nM.

On to `CC(C)n1cc2c(n1)C(=O)CC1(CCN(C(=O)c3ccc4cnsc4c3)CC1)O2` [24.002], for which the IC50 stood at 198 nM.

Take `Cc1c2c(nn1C(C)(C)C)C(=O)CC1(CCN(C(=O)c3ccc4[nH]ncc4c3)CC1)O2` [1.072]: the IC50 came out at 61 nM.

As to `Cc1cc(C(=O)N2CCC3(CC2)CC(=O)c2nn(C4CCOC4)c(C)c2O3)cc2cn[nH]c12` (centres unmarked) [1.041], the IC50 came to 46 nM.

`CC(C)(C)n1cc2c(n1)C(=O)CC1(CCN(C(=O)c3ccc4[nH]c(=O)oc4c3)CC1)O2` [20.001]: the IC50 stood at 28 nM.

With `CCn1nc2c(c1C)OC1(CCN(C(=O)c3ccc4c(c3)nc(C)n4CC)CC1)CC2=O` [8.004], the IC50 was found to be 481 nM.

`Cc1n[nH]c2c(C)cc(C(=O)N3CCC4(CC3)CC(=O)c3nn(CC(C)C)cc3O4)cc12` [1.134]: the IC50 turned out to be 10 nM.

As for `CCn1nc2c(c1C)OC1(CCN(C(=O)c3ccc4ncccc4c3)CC1)CC2=O` [15.003], the IC50 amounted to 179 nM.

Regarding `CCc1c2c(nn1C)C(=O)CC1(CCN(C(=O)c3cc(C)c4[nH]nc(C)c4c3)CC1)O2` [1.007], the IC50 turned out to be 189 nM.

Take `CC(C)(C)n1cc2c(n1)C(=O)CC1(CCN(C(=O)c3ccc4ocnc4c3)CC1)O2` [9.002]: the IC50 came to 291 nM.

In the case of `CC(C)n1cc2c(n1)C(=O)CC1(CCN(C(=O)c3ccc4sncc4c3)CC1)O2` [7.006], the IC50 worked out at 92 nM.

As for `Cc1n[nH]c2ccc(C(=O)N3CCC4(CC3)CC(=O)c3nn(C(C)(C)C)cc3O4)cc12` [1.086], the half-maximal inhibitory concentration (IC50) was 3 nM.

Take `Cc1n[nH]c2c(C)cc(C(=O)N3CCC4(CC3)CC(=O)c3nn(C)c(C)c3O4)cc12` [1.005]: the concentration for half-maximal inhibition (IC50) was 117 nM.

With `Cc1c2c(nn1C(C)C)C(=O)CC1(CCN(C(=O)c3cc(Cl)c4[nH]ncc4c3)CC1)O2` [1.133], the half-maximal inhibitory concentration (IC50) is 4 nM.

Regarding `Cc1n[nH]c2c(C)cc(C(=O)N3CCC4(CC3)CC(=O)c3nn(C5CC5)cc3O4)cc12` [1.143], the IC50 turned out to be 7 nM.

`CC(C)n1cc2c(n1)C(=O)CC1(CCN(C(=O)c3ccc4ncn(C)c4c3)CC1)O2` [3.015]: the IC50 came to 153 nM.

On to `CC(C)n1cc2c(n1)C(=O)CC1(CCN(C(=O)c3cc(Cl)c4[nH]ncc4c3)CC1)O2` [1.066], for which the half-inhibitory concentration (IC50) was found to be 26 nM.

In the case of `CCn1nc2c(c1C)OC1(CCN(C(=O)c3ccc4c(c3)OCC(=O)N4)CC1)CC2=O` [13.002], the IC50 was 861 nM.

With `Cc1nc2ccc(C(=O)N3CCC4(CC3)CC(=O)c3nn(C(C)C)cc3O4)cc2[nH]1` [3.012], the IC50 stood at 129 nM.

Turning to `CCn1nc2c(c1C)OC1(CCN(C(=O)c3ccc4cn[nH]c4c3)CC1)CC2=O` [2.011], the IC50 is 82 nM.

`CCc1n[nH]c2c(OC)cc(C(=O)N3CCC4(CC3)CC(=O)c3nn(CC)cc3O4)cc12` [1.046]: the half-inhibitory concentration (IC50) was 29 nM.

Take `CCn1nc2c(c1C)OC1(CCN(C(=O)c3ccc4snc(N)c4c3)CC1)CC2=O` [7.003]: the IC50 was determined as 19 nM.

Regarding `CCn1nc2c(c1C)OC1(CCN(C(=O)c3ccc4c(c3)CCC(=O)N4)CC1)CC2=O` [13.001], the IC50 amounted to 421 nM.

On to `CCn1cc2c(n1)C(=O)CC1(CCN(C(=O)c3ccc4c(C)n[nH]c4c3)CC1)O2` [2.024], for which the IC50 was found to be 60 nM.

Turning to `CC(C)(C)n1cc2c(n1)C(=O)CC1(CCN(C(=O)c3ccc4cnsc4c3)CC1)O2` [24.001], the concentration for half-maximal inhibition (IC50) was 23 nM.

Regarding `Cc1n[nH]c2c(C)cc(C(=O)N3CCC4(CC3)CC(=O)c3nn(C5CC5)c(C)c3O4)cc12` [1.014], the half-maximal inhibitory concentration (IC50) was 9 nM.

`CCc1nn(C)c2cc(C(=O)N3CCC4(CC3)CC(=O)c3nn(CC)cc3O4)ccc12` [2.008]: the half-maximal inhibitory concentration (IC50) came to 81 nM.

For `COc1cc(C(=O)N2CCC3(CC2)CC(=O)c2nn(C(C)C)cc2O3)cc2nc(C)oc12` [9.004], the 50% inhibitory concentration (IC50) came out at 83 nM.

On to `CC(C)(C)n1cc2c(n1)C(=O)CC1(CCN(C(=O)c3ccc4c(=O)[nH]ccc4c3)CC1)O2` [19.001], for which the IC50 amounted to 9 nM.

Regarding `CC(C)(C)n1cc2c(n1)C(=O)CC1(CCN(C(=O)c3cc(Cl)c4cn[nH]c4c3)CC1)O2` [2.009], the IC50 amounted to 7 nM.

`Cc1n[nH]c2c(C)cc(C(=O)N3CCC4(CC3)CC(=O)c3nn(C(C)(C)C)c(C)c3O4)cc12` [1.011]: the IC50 is 15 nM.

Regarding `COc1cc(C(=O)N2CCC3(CC2)CC(=O)c2nn(C4CCC4)c(C)c2O3)cc2cn[nH]c12` [1.127], the IC50 was determined as 20 nM.

On to `Cn1cnc2cc(C(=O)N3CCC4(CC3)CC(=O)c3nn(C(C)(C)C)cc3O4)ccc21` [8.007], for which the half-maximal inhibitory concentration (IC50) came out at 58 nM.
